Assay results as given in paper PMC8509831 (International Journal of Molecular Sciences, 2021).
Like-named read-outs stand apart in the source and are kept apart here. Marks after values point to notes of the source that are not given here.

Columns and labels:
[1] = target: T1, COX-1 (Ovis aries, UniProt P05979); assay: COX-1 enzyme inhibitory assay (COX inhibitor screening kit); assay type: biochemical
T1 construct: purchased Cayman Chemicals 560131
T1 sequence (P05979 25-600): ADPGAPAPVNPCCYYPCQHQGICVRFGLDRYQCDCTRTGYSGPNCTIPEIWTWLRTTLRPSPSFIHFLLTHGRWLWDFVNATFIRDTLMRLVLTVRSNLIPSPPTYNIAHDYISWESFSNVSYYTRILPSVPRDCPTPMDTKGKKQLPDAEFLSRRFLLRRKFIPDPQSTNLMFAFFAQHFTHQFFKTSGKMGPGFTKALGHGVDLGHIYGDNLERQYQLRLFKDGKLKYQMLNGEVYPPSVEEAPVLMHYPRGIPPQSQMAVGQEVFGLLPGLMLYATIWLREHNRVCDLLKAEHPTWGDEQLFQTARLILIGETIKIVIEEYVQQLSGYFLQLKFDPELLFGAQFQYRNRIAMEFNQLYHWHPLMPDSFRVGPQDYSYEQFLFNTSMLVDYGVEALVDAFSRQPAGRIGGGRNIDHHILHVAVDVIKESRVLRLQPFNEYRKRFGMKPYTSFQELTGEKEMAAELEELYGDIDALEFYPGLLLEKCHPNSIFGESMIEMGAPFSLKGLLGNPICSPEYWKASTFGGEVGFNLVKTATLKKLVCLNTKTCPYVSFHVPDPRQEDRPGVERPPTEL

[2] = target: LOX-5; assay: 5-LOX enzyme inhibitory assay (polarographic, Clark oxygen electrode); assay type: biochemical, potato; details: mean ± SD, n = 3
Procedure: The IC50 was determined for the studied compounds and reference standards. […] Furthermore, 5-LOX enzyme was extracted from potato tubers as described previously. […] The enzyme activity was expressed as moles of oxygen consumed per min/mg protein, as 5-LOX adds oxygen to the substrate, implying that the rate of decrease of oxygen in the reaction mixture was intrinsic to the measurement of enzyme activity. The results were expressed as IC50 (μg/mL) for the sample and reference compounds in triplicate.

[3] = WST cell viability assay; assay type: cell-based, human; details: human, HeLa cells, HeLa
Procedure: (§1) The viability of HeLa cells treated with […] (0-100 μg/mL, concentrations) was examined for 24-72 h using a colorimetric WST assay. Briefly, HeLa cells were cultured in a clear-bottom 96-well plate at a density of 9 × 10^3 cells/well in MEM supplemented with 10% FBS and 1% penicillin-streptomycin in a 5% CO2 incubator and incubated for 24 h at 37 °C. The […] stock solution was prepared in DMSO and stored at -20 °C. Subsequently, the cells were exposed to various concentrations of […] (0-100 μg/mL) over a period of 24-72 h. The cell proliferation reagent WST-1 solution (10 μL/well) was added to the plates, followed by incubation in 5% CO2 for 2 h at 37 °C in the dark. Thereafter, the plates were shaken thoroughly for 1 min on a shaker at RT, and the absorbance of the reporter substrate was measured at 450 nm and 600 nm (reference wavelength 650 nm) using a microplate reader coupled with the Gen5 software (BioTek, Winooski, VT, USA).

[4] = tested on: HeLa cells; assay: WST cell viability assay; assay type: cell-based, human; details: for Cell Viability (%): HeLa, 40 μg/mL, listed as Q3G
Procedure: as §1

[5] = tested on: HeLa cells; assay: Cell cycle analysis by PI flow cytometry; assay type: cell-based, human; details: 30 μg/mL, listed as Q3G
Procedure: Cell cycle analysis was performed in HeLa cells as previously described. Cells were seeded into six-well plates at a density of 2 × 10^5 cells per well and treated with […] (30 μg/mL) for 12-48 h. Thereafter, the cells were harvested, washed with PBS, and fixed at 4 °C for 1 h in a 70% PBS-ethanol solution. Cells were subsequently washed twice with PBS, and 50 μL of a 100 μg/mL stock of DNase-free RNase was added to ensure that only DNA, not RNA, was stained. Cell pellets were stained with a fluorescent probe PI (50 μg/mL) and incubated at RT for 30 min, and then analyzed using a NovoCyte 1000 benchtop flow cytometer (ACEA Biosciences, San Diego, CA, USA).

[6] = tested on: HeLa cells; assay: Annexin V-FITC/PI apoptosis assay by flow cytometry; assay type: cell-based, human
Procedure: Annexin V-FITC/propidium iodide (PI) assay was performed as per the manufacturer's instructions (Sino Biological, Beijing, China). Briefly, HeLa cells (2 × 10^5 cells/well) in 6-well culture plates were treated with […] (30 μg/mL) or with DMSO as a vehicle control for 24 and 48 h. Subsequently, floating as well as adherent cells were collected and washed with PBS. The cells were centrifuged at 400× g for 5 min at RT and resuspended in binding buffer containing Annexin V-FITC, along with PI. In each experiment, 1 × 10^4 cells were analyzed for annexin V-FITC/PI staining after incubation for 20 min at RT in the dark.

[7] = tested on: HeLa cells; assay: Intracellular ROS production (DCFDA fluorescence); assay type: cell-based, human; details: 30 μg/mL
Procedure: Cellular ROS production was analyzed as previously described with minor modifications to the original methodology. Briefly, cells were seeded at a density of 1.5 × 10^4/well in a black, clear bottom 96-well plate. The following day, cells were treated with […] (30 μg/mL) or DMSO as a vehicle control for 12-48 h. Forty-five minutes prior to completion of the treatment, 100 μL of 2× H2DCFDA dilution was overlayed in each well and incubated in 5% CO2 with DCFDA as well as the compounds for 30 min at 37 °C. The fluorescence in each well was assessed on a microplate reader at the end point in the presence of compounds and DCFDA with Ex/Em = 485/535 nm wavelengths.

[8] = tested on: CDK2; assay: Western blot, CDK2 expression; assay type: cell-based, human; details: HeLa, 30 μg/mL, 12-48 h
Procedure: (§2) HeLa cells (1.5 × 10^6 cells/well) were seeded in six-well plates and cultured in MEM supplemented with 10% FBS for 24 h. Subsequently, the cells were treated with the indicated amounts of Q3G or DMSO as a vehicle control for 12–48 h. Following this, the cells were collected, and total lysates from treated cells were prepared in RIPA buffer for 15 min. Protein concentration was determined using a Bio-Rad protein assay kit with BSA [63]. […] Membranes were treated with PBS containing 0.05% Tween 20 and 5% nonfat dry milk to block nonspecific binding at 15–25 °C and were incubated overnight at 4 °C with the following specific primary antibodies: caspase-9/-3, Bax, Bcl-2, Bid, CDK2, and MuD. β-Actin was used as an invariant control for equal loading of total proteins. After incubation with the primary antibody, the membranes were incubated with the appropriate secondary antibodies conjugated to horseradish peroxidase. Finally, immunoreactive bands were visualized using an enhanced chemiluminescence substrate (Bio-Rad).

[9] = tested on: Bcl-2; assay: Western blot, Bcl-2 expression; assay type: cell-based, human; details: HeLa, 30 μg/mL, 12, 24, and 48 h
Procedure: as §2

[10] = tested on: Bax; assay: Western blot, Bax expression; assay type: cell-based, human; details: HeLa, 30 μg/mL, 12, 24, and 48 h
Procedure: as §2

[11] = tested on: caspase-9; assay: Western blot, caspase-9 expression; assay type: cell-based, human; details: HeLa, 30 μg/mL, 12, 24, and 48 h
Procedure: as §2

[12] = tested on: MuD; assay: Western blot, MuD expression; assay type: cell-based, human; details: HeLa, 30 μg/mL, 12, 24, and 48 h
Procedure: as §2

[13] = target: T2, COX-2 (Homo sapiens, UniProt P35354); assay: COX-2 enzyme inhibitory assay (COX inhibitor screening kit); assay type: biochemical; details: mean ± SD, n = 3; read-out: Enzyme Inhibitory Effect IC50 COX-2 (converted)
T2 construct: purchased Cayman Chemicals 560131
T2 sequence (P35354 18-604): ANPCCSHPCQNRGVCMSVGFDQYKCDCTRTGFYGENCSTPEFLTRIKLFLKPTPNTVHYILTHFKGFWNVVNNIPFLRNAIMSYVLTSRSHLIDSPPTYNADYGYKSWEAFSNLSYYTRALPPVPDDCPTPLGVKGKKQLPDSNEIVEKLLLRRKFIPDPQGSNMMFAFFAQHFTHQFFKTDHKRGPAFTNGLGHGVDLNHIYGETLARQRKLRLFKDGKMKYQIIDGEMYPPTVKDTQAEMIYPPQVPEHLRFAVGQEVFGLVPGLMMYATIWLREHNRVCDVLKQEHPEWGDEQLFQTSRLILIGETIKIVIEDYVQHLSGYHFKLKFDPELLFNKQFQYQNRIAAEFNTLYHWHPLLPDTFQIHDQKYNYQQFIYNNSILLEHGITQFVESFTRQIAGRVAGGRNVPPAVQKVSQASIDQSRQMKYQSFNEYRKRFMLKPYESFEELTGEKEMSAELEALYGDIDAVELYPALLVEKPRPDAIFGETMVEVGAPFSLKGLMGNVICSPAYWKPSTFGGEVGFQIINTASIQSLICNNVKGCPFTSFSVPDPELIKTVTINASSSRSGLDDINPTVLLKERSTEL

[14] = mean ± SD, n = 3, read-out: Enzyme Inhibitory Effect IC50 COX-1 (converted)

O=c1c(O[C@@H]2O[C@H](CO)[C@@H](O)[C@H](O)[C@H]2O)c(-c2ccc(O)c(O)c2)oc2cc(O)cc(O)c12 [Quercetin-3-glucoside, quercetin 3-β-D-glucoside]
IC50 [1]: 7.8 µM | Enzyme Inhibitory Effect IC50 LOX-5 [2]: 2.31 ± 0.32 ^b μg/mL | viability at 48 h, 0.1 μg/mL ([3]; 0.1 μg/mL, 48 h): 114.98 ± 0.05% | viability at 48 h, 1 μg/mL ([3]; 1 μg/mL, 48 h): 103.3 ± 0.12% | viability at 48 h, 10 μg/mL ([3]; 10 μg/mL, 48 h): 116.1 ± 0.01% | viability at 24 h, 40 μg/mL ([3]; 40 μg/mL, 24 h): 83% | viability at 48 h, 40 μg/mL ([3]; 40 μg/mL, 48 h): 36% | viability at 72 h, 40 μg/mL ([3]; 40 μg/mL, 72 h): 18% | viability at 48 h, 50 μg/mL ([3]; 50 μg/mL, 48 h): 29.6% | viability at 48 h, 100 μg/mL ([3]; 100 μg/mL, 48 h): 41.81 ± 0.01% | concentrations with significant growth inhibition ([4]; HeLa cells, 48 h): higher than 10 µg/mL | Cell Viability (%) ([4]; 24 h): 83.30 ± 4.05% | Cell Viability (%) ([4]; 48 h): 36.27 ± 1.38% | Cell Viability (%) ([4]; 72 h): 17.97 ± 1.42% | cells in S phase ([5]; 24 h): ~56% | cells in S phase ([5]; 48 h): ~63% | cells in early apoptosis ([6]; 30 μg/mL, 48 h): Approximately 20% | cells in the late apoptosis phase ([6]; 30 μg/mL, 48 h): ~35% | difference in apoptosis (early and late phase) compared with the control cells ([6]; 24 h of treatment): No significant difference | increase in the number of apoptotic cells (Annexin V-positive cells) ([6]; after 48 h compared to after 24 h of treatment): 16–22% | ROS level higher than the control group ([7]; 12 h): approximately 6 fold | ROS level higher than the control group ([7]; 24 h): ~12 fold | protein expression of CDK2 [8]: decreasing | level of anti-apoptotic protein Bcl-2 [9]: reduced | level of Bax [10]: increase | expression of the initiator caspase, caspase-9 [11]: reduced | MuD expression [12]: markedly reduced

O=C(CCc1ccc(O)cc1)c1c(O)cc(O)cc1O[C@@H]1O[C@H](CO)[C@@H](O)[C@H](O)[C@H]1O [Phloridzin]
IC50 [1, 14]: 65.6 µM | IC50 [13]: 83 µM | Enzyme Inhibitory Effect IC50 LOX-5 [2]: 18.98 ± 0.85 ^i μg/mL

O=C(/C=C/c1ccc(O)c(O)c1)O[C@@H]1C[C@](O)(C(=O)O)C[C@@H](O)[C@H]1O [Chlorogenic acid]
IC50 [1, 14]: 39.7 µM | IC50 [13]: 75.3 µM | Enzyme Inhibitory Effect IC50 LOX-5 [2]: 9.98 ± 0.94 ^e μg/mL

O=C(O)/C=C/c1ccc(O)cc1 [Coumaric acid]
IC50 [1, 14]: 55.4 µM | IC50 [13]: 93.2 µM | Enzyme Inhibitory Effect IC50 LOX-5 [2]: 7.96 ± 0.76 ^d μg/mL

O=C(CCc1ccc(O)cc1)c1c(O)cc(O)cc1O [Phloretin]
IC50 [1, 14]: 91.7 µM | IC50 [13]: 121 µM | Enzyme Inhibitory Effect IC50 LOX-5 [2]: 16.86 ± 1.22 ^h μg/mL

O=c1c(O)c(-c2ccc(O)c(O)c2)oc2cc(O)cc(O)c12 [Quercetin]
IC50 [1, 14]: 20.2 µM | IC50 [13]: 37.4 µM

Oc1cc(O)c2c(c1)O[C@H](c1ccc(O)c(O)c1)[C@H](O)C2 [Epicatechin]
IC50 [1]: 63 µM | Enzyme Inhibitory Effect IC50 LOX-5 [2]: 10.09 ± 1.03 ^f μg/mL

O=C(O)/C=C/c1ccc(O)c(O)c1 [Caffeic acid]
IC50 [1, 14]: 113 µM | Enzyme Inhibitory Effect IC50 LOX-5 [2]: 12.26 ± 0.91 ^g μg/mL
